Source: US6403794B2, “Substituted 2-amino-4-alkylamino-1,3,5-triazines as herbicides” (Bayer Aktiengesellschaft, priority 1996, dated 2002)

What was measured:
Assay type in all cases: in vivo
Maize = experiment: Pre-emergence test; settings: greenhouse, 500 g of ai./ha, after three weeks
Protocol: (§1) Solvent: 5 parts by weight of acetone
(§2) Emulsifier: 1 part by weight of alkylaryl polyglycol ether
(§3) To produce a suitable preparation of active compound, 1 part by weight of active compound is mixed with the stated amount of solvent, the stated amount of emulsifier is added and the concentrate is diluted with water to the desired concentration.
(§4) Seeds of the test plants are sown in normal soil. After about 24 hours, the soil is watered with the preparation of active compound. The amount of water per unit area is advantageously kept constant. The concentration of active compound in the preparation is immaterial, only the application rate of active compound per unit area matters.
(§5) After three weeks, the degree of damage to the plants is scored visually in % damage in comparison to the development of the untreated control.
(§6) 0%=no effect (like untreated control)

Alopecurus [1] = experiment: Pre-emergence test; settings: greenhouse, after three weeks
Protocol: as §1, §2, §3, §4, §5, §6

Cotton = experiment: Pre-emergence test; settings: greenhouse, 500 g of ai./ha, after three weeks
Protocol: as §1, §2, §3, §4, §5, §6

Matricaria = experiment: Pre-emergence test; settings: greenhouse, 500 g of ai./ha, after three weeks
Protocol: as §1, §2, §3, §4, §5, §6

Galium [2] = experiment: Pre-emergence test; settings: greenhouse, after three weeks
Protocol: as §1, §2, §3, §4, §5, §6

Digitaria = experiment: Pre-emergence test; settings: greenhouse, 500 g of ai./ha, after three weeks
Protocol: as §1, §2, §3, §4, §5, §6

weeds [3] = experiment: Pre-emergence test
Protocol: as §1, §2, §3, §4, §5, §6

Abutilon [4] = experiment: Pre-emergence test; settings: Abutilon, 504 h, greenhouse, after three weeks, read-out: degree of damage to the plants (% damage), Abutilon; for pest or weed control at 1000 g/ha: 1000 g of ai./ha
Protocol: as §1, §2, §3, §4, §5, §6

Ipomoea = experiment: Post-emergence test; settings: greenhouse, 250 g of ai./ha, after three weeks
Protocol: as §1, §2, §3
(§7) Test plants which have a height of 5-15 cm are sprayed with the preparation of active compound such that the particular amounts of active compounds desired are applied per unit area. The concentration of the spray liquor is chosen so that the particular amounts of active compound desired are applied in 1000 l of water/ha.
(§8) After three weeks, the degree of damage to the plants is scored visually in % damage, in comparison to the untreated control.
as §6

weeds [5] = experiment: Post-emergence test
Protocol: as §1, §2, §3, §7, §8, §6

Echinochloa = experiment: Post-emergence test; settings: greenhouse, 250 g of ai./ha, after three weeks
Protocol: as §1, §2, §3, §7, §8, §6

Veronica [6] = experiment: Post-emergence test; settings: greenhouse, 250 g of ai./ha, after three weeks
Protocol: as §1, §2, §3, §7, §8, §6

Datura = experiment: Post-emergence test; settings: greenhouse, 250 g of ai./ha, after three weeks
Protocol: as §1, §2, §3, §7, §8, §6

Wheat [7] = experiment: Post-emergence test; settings: greenhouse, 250 g of ai./ha, after three weeks
Protocol: as §1, §2, §3, §7, §8, §6

Abutilon [8] = experiment: Post-emergence test; settings: greenhouse, after three weeks
Protocol: as §1, §2, §3, §7, §8, §6

Solanum = experiment: Pre-emergence test; settings: greenhouse, 500 g of ai./ha, after three weeks
Protocol: as §1, §2, §3, §4, §5, §6

Viola = experiment: Pre-emergence test; settings: greenhouse, 500 g of ai./ha, after three weeks
Protocol: as §1, §2, §3, §4, §5, §6

Amaranthus [9] = experiment: Pre-emergence test; settings: Amaranthus, 504 h, greenhouse, 1000 g of ai./ha, after three weeks, read-out: degree of damage to the plants (% damage), Amaranthus
Protocol: as §1, §2, §3, §4, §5, §6

Setaria [10] = experiment: Pre-emergence test; settings: greenhouse, 1000 g of ai./ha, after three weeks
Protocol: as §1, §2, §3, §4, §5, §6

Chenopodium = experiment: Pre-emergence test; settings: greenhouse, 500 g of ai./ha, after three weeks
Protocol: as §1, §2, §3, §4, §5, §6

Veronica [11] = experiment: Pre-emergence test; settings: greenhouse, 500 g of ai./ha, after three weeks
Protocol: as §1, §2, §3, §4, §5, §6

Wheat [12] = experiment: Pre-emergence test; settings: greenhouse, 500 g of ai./ha, after three weeks
Protocol: as §1, §2, §3, §4, §5, §6

Amaranthus [13] = experiment: Post-emergence test; settings: Amaranthus, 504 h, greenhouse, 1000 g of ai./ha, after three weeks, read-out: degree of damage to the plants (% damage), Amaranthus
Protocol: as §1, §2, §3, §7, §8, §6

Setaria [14] = experiment: Post-emergence test; settings: Setaria, 504 h, greenhouse, 1000 g of ai./ha, after three weeks, read-out: degree of damage to the plants (% damage), Setaria
Protocol: as §1, §2, §3, §7, §8, §6

Galium [15] = experiment: Post-emergence test; settings: greenhouse, 1000 g of ai./ha, after three weeks
Protocol: as §1, §2, §3, §7, §8, §6

Xanthium [16] = experiment: Post-emergence test; settings: greenhouse, 1000 g of ai./ha, after three weeks
Protocol: as §1, §2, §3, §7, §8, §6

Sinapis [17] = experiment: Pre-emergence test; settings: greenhouse, 1000 g of ai./ha, after three weeks
Protocol: as §1, §2, §3, §4, §5, §6

Xanthium [18] = experiment: Pre-emergence test; settings: greenhouse, 1000 g of ai./ha, after three weeks
Protocol: as §1, §2, §3, §4, §5, §6

Alopecurus [19] = experiment: Post-emergence test; settings: greenhouse, 1000 g of ai./ha, after three weeks
Protocol: as §1, §2, §3, §7, §8, §6

Sinapis [20] = experiment: Post-emergence test; settings: greenhouse, 1000 g of ai./ha, after three weeks
Protocol: as §1, §2, §3, §7, §8, §6

Cyperus = experiment: Post-emergence test; settings: greenhouse, 1000 g of ai./ha, after three weeks
Protocol: as §1, §2, §3, §7, §8, §6

Avena fatua = experiment: Post-emergence test; settings: greenhouse, 1000 g of ai./ha, after three weeks
Protocol: as §1, §2, §3, §7, §8, §6

## CCC(CCc1ccccc1)Nc1nc(N)nc(C(C)(C)F)n1 (racemic) [Example 1, (R/S)-2-amino-4-(1-fluoro-1-methyl-ethyl)-6-(1-ethyl-3-phenyl-propylamino)-1,3,5-triazine]
Maize
  degree of damage to the plants (% damage), Maize: 0%
Alopecurus [1]; 500 g of ai./ha
  degree of damage to the plants (% damage), Alopecurus: 100%
Cotton
  degree of damage to the plants (% damage), Cotton: 0%
Matricaria
  degree of damage to the plants (% damage), Matricaria: 100%
Galium [2]; 500 g of ai./ha
  degree of damage to the plants (% damage), Galium: 100%
Digitaria
  degree of damage to the plants (% damage), Digitaria: 100%
Weeds [3]
  activity against weeds: strong activity
Abutilon [4]; 500 g of ai./ha
  pest or weed control at 500 g/ha: 100%
Ipomoea
  degree of damage to the plants (% damage), Ipomoea: 100%
Weeds [5]
  activity against weeds: strong activity
Echinochloa
  degree of damage to the plants (% damage), Echinochloa: 80%
Veronica [6]
  degree of damage to the plants (% damage), Veronica: 100%
Datura
  degree of damage to the plants (% damage), Datura: 100%
Wheat [7]
  degree of damage to the plants (% damage), Wheat: 0%
Abutilon [8]; 250 g of ai./ha
  degree of damage to the plants (% damage), Abutilon: 100%

## CCC(CCc1ccccn1)Nc1nc(N)nc(C(C)(C)F)n1 (stereo not drawn) [Example 22]
Alopecurus [1]; 1000 g of ai./ha
  degree of damage to the plants (% damage), Alopecurus: 90%
Solanum
  degree of damage to the plants (% damage), Solanum: 100%
Cotton
  degree of damage to the plants (% damage), Cotton: 0%
Viola
  degree of damage to the plants (% damage), Viola: 100%
Amaranthus [9]
  pest or weed control at 1000 g/ha: 95%
Setaria [10]
  degree of damage to the plants (% damage), Setaria: 70%
Chenopodium
  degree of damage to the plants (% damage), Chenopodium: 100%
Galium [2]; 1000 g of ai./ha
  degree of damage to the plants (% damage), Galium: 100%
Weeds [3]
  activity against weeds: strong activity
Veronica [11]
  degree of damage to the plants (% damage), Veronica: 100%
Wheat [12]
  degree of damage to the plants (% damage), Wheat: 0%
Abutilon [4]
  pest or weed control at 1000 g/ha: 100%
Amaranthus [13]
  pest or weed control at 1000 g/ha: 95%
Setaria [14]
  pest or weed control at 1000 g/ha: 80%
Galium [15]
  degree of damage to the plants (% damage), Galium: 80%
Xanthium [16]
  degree of damage to the plants (% damage), Xanthium: 70%
Weeds [5]
  activity against weeds: strong activity
Abutilon [8]; 1000 g of ai./ha
  degree of damage to the plants (% damage), Abutilon: 70%

## CCC(CCc1ccsc1)Nc1nc(N)nc(C(C)(C)F)n1 (stereo not drawn) [Example 33]
Alopecurus [1]; 1000 g of ai./ha
  degree of damage to the plants (% damage), Alopecurus: 100%
Sinapis [17]
  degree of damage to the plants (% damage), Sinapis: 100%
Amaranthus [9]
  pest or weed control at 1000 g/ha: 100%
Setaria [10]
  degree of damage to the plants (% damage), Setaria: 100%
Xanthium [18]
  degree of damage to the plants (% damage), Xanthium: 90%
Weeds [3]
  activity against weeds: strong activity
Abutilon [4]
  pest or weed control at 1000 g/ha: 90%
Alopecurus [19]
  degree of damage to the plants (% damage), Alopecurus: 80%
Sinapis [20]
  degree of damage to the plants (% damage), Sinapis: 100%
Amaranthus [13]
  pest or weed control at 1000 g/ha: 100%
Cyperus
  degree of damage to the plants (% damage), Cyperus: 90%
Setaria [14]
  pest or weed control at 1000 g/ha: 100%
Avena fatua
  degree of damage to the plants (% damage), Avena fatua: 100%
Weeds [5]
  activity against weeds: strong activity
Abutilon [8]; 1000 g of ai./ha
  degree of damage to the plants (% damage), Abutilon: 100%
